{"source": "PubChem BioAssay AID1259411", "about": "(Chemical Carcinogenesis Research Information System (CCRIS), 2018)", "test_system": "rodent carcinogenicity bioassays, tumor incidence", "assay": "CCRIS carcinogenicity studies", "conditions": "Dose: 0, Dose: 0", "outline": "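Archive of carcinogenicity, mutagenicity, tumor promotion and tumor inhibition results drawn from journals, NCI reports and other sources, expert-reviewed; covers 1985-2011 and is no longer updated.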", "note": "Calls of active or inactive are those of the source. The rule behind the calls is not given here.", "data": [{"smiles": "ClC(Cl)Br", "values": [{"measurement": "carcinogen call", "setting": "Species: FISH, Strain/Sex: ORYZIAS LATIPES/FEMALE, Route: IMMERSION, 0.018, 0.143, 1.424 MG/L AQUEOUS SOLUTION FOR 6 MO (STUDY DURATION: 6 MO), 0.018, 0.143, 1.424 MG/L AQUEOUS SOLUTION FOR 6 MO (STUDY DURATION: 6 MO)", "value": "inactive; negative"}, {"measurement": "carcinogen call", "setting": "Species: FISH, Strain/Sex: ORYZIAS LATIPES/FEMALE, Route: IMMERSION, 0.018, 0.143, 1.424 MG/L AQUEOUS SOLUTION FOR 9 MO (STUDY DURATION: 9 MO), 0.018, 0.143, 1.424 MG/L AQUEOUS SOLUTION FOR 9 MO (STUDY DURATION: 9 MO)", "value": "inactive; negative"}, {"measurement": "carcinogen call", "setting": "Species: FISH, Strain/Sex: ORYZIAS LATIPES/MALE, Route: IMMERSION, 0.018, 0.143, 1.424 MG/L AQUEOUS SOLUTION FOR 6 MO (STUDY DURATION: 6 MO), 0.018, 0.143, 1.424 MG/L AQUEOUS SOLUTION FOR 6 MO (STUDY DURATION: 6 MO)", "value": "inactive; negative"}, {"measurement": "carcinogen call", "setting": "Species: FISH, Strain/Sex: ORYZIAS LATIPES/MALE, Route: IMMERSION, 0.018, 0.143, 1.424 MG/L AQUEOUS SOLUTION FOR 9 MO (STUDY DURATION: 9 MO), 0.018, 0.143, 1.424 MG/L AQUEOUS SOLUTION FOR 9 MO (STUDY DURATION: 9 MO)", "value": "inactive; negative"}, {"measurement": "carcinogen call", "setting": "Species: MOUSE, Strain/Sex: B6C3F1/FEMALE, Route: GAVAGE, 75, 150 MG/KG IN CORN OIL 5D/WK FOR 102 WK (STUDY DURATION: 105 WK), 75, 150 MG/KG IN CORN OIL 5D/WK FOR 102 WK (STUDY DURATION: 105 WK), Tumor Site: Type of Lesion: LIVER: HEPATOCELLULAR ADENOMA, LIVER: HEPATOCELLULAR CARCINOMA, LIVER: HEPATOCELLULAR ADENOMA OR CARCINOMA, Tumor Site: Type of Lesion: LIVER: HEPATOCELLULAR ADENOMA, LIVER: HEPATOCELLULAR CARCINOMA, LIVER: HEPATOCELLULAR ADENOMA OR CARCINOMA", "value": "active; positive"}, {"measurement": "carcinogen call", "setting": "Species: MOUSE, Strain/Sex: B6C3F1/MALE, Route: GAVAGE, 25, 50 MG/KG IN CORN OIL 5D/WK FOR 102 WK (STUDY DURATION: 105 WK), 25, 50 MG/KG IN CORN OIL 5D/WK FOR 102 WK (STUDY DURATION: 105 WK), Tumor Site: Type of Lesion: KIDNEY: TUBULAR CELL ADENOMA OR ADENOCARCINOMA", "value": "active; positive"}, {"measurement": "carcinogen call", "setting": "Species: MOUSE, Strain/Sex: B6C3F1/MALE, Route: ORAL, 8.1, 27.2, 43.4 MG/KG/D IN 0.25% EMULPHOR IN DRINKING WATER FOR 100 WK (STUDY DURATION: 100 WK), 8.1, 27.2, 43.4 MG/KG/D IN 0.25% EMULPHOR IN DRINKING WATER FOR 100 WK (STUDY DURATION: 100 WK)", "value": "inactive; negative"}, {"measurement": "carcinogen call", "setting": "Species: Mouse, Strain/Sex: B6C3F1/female, Route: Oral, 175, 350, 700 mg/L (about 0, 9, 18, and 36 mg/kg, respectively) in drinking water for 104 wk, 175, 350, 700 mg/L (about 0, 9, 18, and 36 mg/kg, respectively) in drinking water for 104 wk", "value": "inactive; negative"}, {"measurement": "carcinogen call", "setting": "Species: RAT, Strain/Sex: F344/FEMALE, Route: GAVAGE, 50, 100 MG/KG IN CORN OIL 5D/WK FOR 102 WK (STUDY DURATION: 104 WK), 50, 100 MG/KG IN CORN OIL 5D/WK FOR 102 WK (STUDY DURATION: 104 WK), Tumor Site: Type of Lesion: LARGE INTESTINE: ADENOMATOUS POLYP, LARGE INTESTINE: ADENOCARCINOMA, LARGE INTESTINE: ADENOMATOUS POLYP OR ADENOCARCINOM, Tumor Site: Type of Lesion: LARGE INTESTINE: ADENOMATOUS POLYP, LARGE INTESTINE: ADENOCARCINOMA, LARGE INTESTINE: ADENOMATOUS POLYP OR ADENOCARCINOM", "value": "active; positive"}, {"measurement": "carcinogen call", "setting": "Species: RAT, Strain/Sex: F344/MALE, Route: GAVAGE, 50, 100 MG/KG IN CORN OIL 5D/WK FOR 102 WK (STUDY DURATION: 104 WK), 50, 100 MG/KG IN CORN OIL 5D/WK FOR 102 WK (STUDY DURATION: 104 WK), Tumor Site: Type of Lesion: LARGE INTESTINE: ADENOCARCINOMA, LARGE INTESTINE: ADENOMATOUS POLYP, LARGE INTESTINE: ADENOMATOUS POLYP OR ADENOCARCINOM, Tumor Site: Type of Lesion: LARGE INTESTINE: ADENOCARCINOMA, LARGE INTESTINE: ADENOMATOUS POLYP, LARGE INTESTINE: ADENOMATOUS POLYP OR ADENOCARCINOM", "value": "active; positive"}, {"measurement": "carcinogen call", "setting": "Species: RAT, Strain/Sex: F344/MALE, Route: ORAL, 3.9, 20.6, 36.3 MG/KG/D IN 0.25% EMULPHOR IN DRINKING WATER FOR 100 WK (STUDY DURATION: 100 WK), 3.9, 20.6, 36.3 MG/KG/D IN 0.25% EMULPHOR IN DRINKING WATER FOR 100 WK (STUDY DURATION: 100 WK), Tumor Site: Type of Lesion: LIVER: HEPATOCELLULAR ADENOMA, HEPATOCELLULAR ADENOMA OR HEPATOCELLULAR CARCINOMA", "value": "active; positive"}, {"measurement": "carcinogen call", "setting": "Species: RAT, Strain/Sex: WISTAR/FEMALE, Route: ORAL, 1.2 ML/L (15 MILLIMOLAR) IN DRINKING WATER FOR 72 WK THEN DOSE HALVED FOR DURATION OF STUDY (STUDY DURATION: LIFETIME, Tumor Site: Type of Lesion: LIVER: NEOPLASTIC NODULES, LYMPHOID TISSUE: LYMPHOSARCOMA", "value": "active; positive"}, {"measurement": "carcinogen call", "setting": "Species: RAT, Strain/Sex: WISTAR/MALE, Route: ORAL, 1.2 ML/L (15 MILLIMOLAR) IN DRINKING WATER FOR 72 WK THEN DOSE HALVED FOR DURATION OF STUDY (STUDY DURATION: LIFETIME", "value": "inactive; negative"}, {"measurement": "carcinogen call", "setting": "Species: Rat, Strain/Sex: F344/N/male, Route: Oral, 175, 350, 700 mg/L (about 0, 6, 12, and 25 mg/kg, respectively) in drinking water for 104 wk, 175, 350, 700 mg/L (about 0, 6, 12, and 25 mg/kg, respectively) in drinking water for 104 wk", "value": "inactive; negative"}]}, {"smiles": "Nc1cnn([C@@H]2O[C@H](CO)[C@@H](O)[C@H]2O)c(=O)n1", "values": [{"measurement": "carcinogen call", "setting": "Species: RAT, Strain/Sex: F344/MALE, Route: INTRAPERITONEAL, 2.5 MG/KG IN 0.9% SALINE 3/WK FOR 1 YR (STUDY DURATION: 1 YR)", "value": "inactive; negative"}]}, {"smiles": "C=CCc1ccc(OC)c(OC)c1", "values": [{"measurement": "carcinogen call", "setting": "Species: MOUSE, Strain/Sex: B6C3F1/FEMALE, Route: GAVAGE, 37, 75, 150 MG/KG BW IN 0.5% METHYLCELLULOSE 5 D/WK FOR 105 WK (STUDY DURATION: 105 WK), 37, 75, 150 MG/KG BW IN 0.5% METHYLCELLULOSE 5 D/WK FOR 105 WK (STUDY DURATION: 105 WK), Tumor Site: Type of Lesion: LIVER: HEPATOCELLULAR ADENOMA, HEPATOCELLULAR CARCINOMA, HEPATOBLASTOMA", "value": "active; positive"}, {"measurement": "carcinogen call", "setting": "Species: MOUSE, Strain/Sex: B6C3F1/MALE, Route: GAVAGE, 37, 75, 150 MG/KG BW IN 0.5% METHYLCELLULOSE 5 D/WK FOR 105 WK (STUDY DURATION: 105 WK), 37, 75, 150 MG/KG BW IN 0.5% METHYLCELLULOSE 5 D/WK FOR 105 WK (STUDY DURATION: 105 WK), Tumor Site: Type of Lesion: LIVER: TUMOR", "value": "active; positive"}, {"measurement": "carcinogen call", "setting": "Species: RAT, Strain/Sex: F344/N/FEMALE, Route: GAVAGE, 37, 75, 150 MG/KG BW IN 0.5% METHYLCELLULOSE 5D/WK FOR 105 WK (STUDY DURATION: 105 WK), 37, 75, 150 MG/KG BW IN 0.5% METHYLCELLULOSE 5D/WK FOR 105 WK (STUDY DURATION: 105 WK), Tumor Site: Type of Lesion: LIVER: HEPATOCELLULAR ADENOMA OR CARCINOMA, GLANDULAR STOMACH: BENIGN OR MALIGNANT NEUROENDOCRINE TUMOR", "value": "active; positive"}, {"measurement": "carcinogen call", "setting": "Species: RAT, Strain/Sex: F344/N/FEMALE, Route: GAVAGE, 300 MG/KG BW IN 0.5% METHYLCELLULOSE 5D/WK FOR 52 WK (STUDY DURATION: 105 WK), Tumor Site: Type of Lesion: ADRENAL MEDULLA: BENIGN PHEOCHROMOCYTOMA, LIVER: HEPATOCELLULAR ADENOMA OR CARCINOMA, HEPATOCHOLANGIOMA OR HEPATOCHOLANG", "value": "active; positive"}, {"measurement": "carcinogen call", "setting": "Species: RAT, Strain/Sex: F344/N/MALE, Route: GAVAGE, 37, 75, 150 MG/KG BW IN 0.5% METHYLCELLULOSE 5 D/WK FOR 105 WK (STUDY DURATION: 105 WK), 37, 75, 150 MG/KG BW IN 0.5% METHYLCELLULOSE 5 D/WK FOR 105 WK (STUDY DURATION: 105 WK), Tumor Site: Type of Lesion: LIVER: HEPATOCELLULAR ADENOMA OR CARCINOMA, GLANDULAR STOMACH: MALIGNANT NEUROENDOCRINE TUMOR, KIDNEY: ADENOMA, MAMMARY, Tumor Site: Type of Lesion: LIVER: HEPATOCELLULAR ADENOMA OR CARCINOMA, GLANDULAR STOMACH: MALIGNANT NEUROENDOCRINE TUMOR, KIDNEY: ADENOMA, MAMMARY", "value": "active; positive"}, {"measurement": "carcinogen call", "setting": "Species: RAT, Strain/Sex: F344/N/MALE, Route: GAVAGE, 300 MG/KG BW IN 0.5% METHYLCELLULOSE 5 D/WK FOR 52 WK (STUDY DURATION: 105 WK), Tumor Site: Type of Lesion: KIDNEY: RENAL TUBULE ADENOMA OR CARCINOMA, LIVER: HEPATOCELLULAR ADENOMA OR CARCINOMA, HEPATOCHOLANGIOMA OR HEPATOCHOLAN", "value": "active; positive"}]}, {"smiles": "Cl", "values": [{"measurement": "carcinogen call", "setting": "Species: RAT, Strain/Sex: F344/MALE, Route: ORAL, 0.25, 1, 4% IN DIET FOR 2 YR (STUDY DURATION: 2 YR), 0.25, 1, 4% IN DIET FOR 2 YR (STUDY DURATION: 2 YR)", "value": "inactive; negative"}]}]}
